Here are results for one molecule from publication PMC9266914, “Broad Spectrum Functional Activity of Structurally Related Monoanionic Au(III) Bis(Dithiolene) Complexes” (International Journal of Molecular Sciences, 2022).

The target in the data set is T1, thioredoxin reductase (TrxR) (Rattus norvegicus, UniProt O89049).
T1 construct: purchased Sigma-Aldrich
T1 sequence (O89049 1-499): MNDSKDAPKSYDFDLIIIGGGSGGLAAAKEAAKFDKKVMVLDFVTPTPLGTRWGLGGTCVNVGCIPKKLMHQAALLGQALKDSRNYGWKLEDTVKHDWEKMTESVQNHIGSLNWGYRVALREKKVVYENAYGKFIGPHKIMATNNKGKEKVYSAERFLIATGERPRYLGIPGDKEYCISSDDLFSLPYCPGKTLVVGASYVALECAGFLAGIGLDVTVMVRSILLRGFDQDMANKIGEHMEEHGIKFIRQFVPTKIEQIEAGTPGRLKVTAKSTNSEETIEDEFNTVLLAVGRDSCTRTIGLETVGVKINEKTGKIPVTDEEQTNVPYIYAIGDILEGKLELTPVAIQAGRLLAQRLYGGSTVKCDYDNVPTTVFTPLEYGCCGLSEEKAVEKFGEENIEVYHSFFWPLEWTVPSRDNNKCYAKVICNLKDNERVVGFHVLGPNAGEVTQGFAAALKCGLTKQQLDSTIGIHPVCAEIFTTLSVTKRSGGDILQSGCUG
Kind of data set: Thioredoxin reductase inhibition, colorimetric DTNB assay. It is filed as biochemical. Conditions: 0.1 nM–2 µM. How it is done: The effect of the selected gold complexes on the activity of TrxR was evaluated by a colorimetric DTNB assay as previously described. […] The substituent on the nitrogen atom of the thiazoline ring ([P][AuSEt(=S)] vs. [P][AuSBu(=S)]) and the nature of the exocyclic atom ([P][AuSEt(=S)] vs. [P][AuSEt(=Se)]) seemed to influence the inhibitory effect on the enzyme. The exocyclic selenium atoms of [P][AuSEt(=Se)] seemed to disfavor the intermolecular interaction with the enzyme in relation with the peripheral thione group of [P][AuSEt(=S)].
The […] (TrxR) inhibition assays were performed using a commercial kit from Sigma-Aldrich, introducing minor modifications for a 96-well plate format. The assay is based on the reduction of DTNB (5,5′ dithiobis(2-nitrobenzoic acid)) into TNB (5-thio-2-nitrobenzoic acid) with the concomitant oxidation of NADPH, in a reaction catalyzed by TrxR [92]. The complexes were dissolved in DMSO to prepare serial concentrations in the range of 0.1 nM–2 µM. The reaction mixture (200 µL total volume) contained 11 μL assay buffer (phosphate buffer, pH 7.0 and 50 mM EDTA), 180 µL working buffer (phosphate buffer and 0.25 mM NADPH), 1 μL complexes’ solutions, 2 μL enzyme solution and 6 µL DTNB (0.1 M in DMSO). […] The formation of TNB was monitored at 412 nm with a plate spectrophotometer (Power Wave Xs, Bio-Tek).

In turn, `CC(=O)OC[C@H]1O[C@@H]([S-])[C@H](OC(C)=O)[C@@H](OC(C)=O)[C@@H]1OC(C)=O.CCP(CC)CC.[Au+]` [Auranofin, reference compound] showed an IC50 of 26 ± 10 nM.
